Test results taken from patent US8445636B2, “Antimicrobial and anticancer lipopeptides” (Yeda Research & Development Co. Ltd., priority 2003, dated 2013).
Converted amounts (≈) assume the structure as drawn. Like-named read-outs stand apart in the source and are kept apart here. Non-standard residues stand in square brackets, D forms with d. Residues, ends and D or L forms follow the SMILES beside them. *: point of attachment. Palmitoyl = CCCCCCCCCCCCCCCC(=O)*; Myristoyl = CCCCCCCCCCCCCC(=O)*

How the values were obtained:
Format in all cases: cell-based
[1] = tested on: Acinetobacter baumannii ATCC 19606; settings: pH 7.4
Method in brief: (§1)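 MIC = lowest concentration with 100% growth inhibition, judged from A600 after 18-20 h incubation at 37° C. Bacteria at 1×10^6 CFU/ml in LB (pH 7.4 unless pH 5.5 stated) combined with equal volume of serially 2-fold diluted lipopeptide.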

[2] = tested on: Enterobacter cloacae ATCC 49141; settings: Table 4; pH 7.4
Method in brief: as §1

[3] = tested on: Enterococcus faecalis ATCC 29212; settings: Table 4; pH 7.4
Method in brief: as §1

[4] = tested on: Escherichia coli ATCC 25922; settings: pH 7.4
Method in brief: as §1

[5] = tested on: Pseudomonas aeruginosa ATCC 27853
Method in brief: as §1

[6] = tested on: Staphylococcus aureus ATCC 6538P
Method in brief: as §1

[7] = tested on: methicilin-resistant Staphylococcus aureus (MRSA) ATCC 700698; settings: Table 4; pH 7.4
Method in brief: as §1

B. subtilis ATCC 6051 = settings: Table 8, lipopeptides vs parent peptides; pH 7.4
[8] = tested on: Candida albicans ATCC 10231; test: microbe, parasite or virus in culture
Method in brief: (§2)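 In this assay, each strain, prepared at 1×10^4 CFU/ml before mixing, met serial twofold peptide dilutions in RPMI 1640 buffered with 0.165 M MOPS. Unless noted, pH was 7.4; a pH 5.5 condition was also run. After 24-48 h incubation (35 °C, agitated), wells were scored at 620 nm for total inhibition.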

[9] = tested on: Cryptococcus neoformans ATCC 66031; test: microbe, parasite or virus in culture; settings: Table 10; pH 7.4
Method in brief: as §2

[10] = tested on: Cryptococcus neoformans ATCC MYA-422; test: microbe, parasite or virus in culture; settings: for Minimal Inhibitory Concentration, C. neoformans ATCC MYA-422: ATCC MYA-422, pH 7.4
[11] = tested on: Aspergillus fumigatus ATCC 26430; test: microbe, parasite or virus in culture
[12] = tested on: Aspergillus flavus ATCC 9643; settings: Table 14, lipopeptides vs parent peptides; pH 7.4
[13] = tested on: Aspergillus niger ATCC 9642; settings: Table 14, lipopeptides vs parent peptides; pH 7.4
Protocol: The antifungal activity of the lipopeptides was examined in sterile 96-well plates (Nunc F96 microtiter plates) in a final volume of 200 μL as follows: 100 µl of a suspension containing fungi at a concentration of 1×10^4 Colony-Forming Units (CFU)/ml in culture medium (RPMI 1640, 0.165 M MOPS with L-glutamine, without NaHCO3) at pH 7.4 or pH 5.5 (adjustment of the pH was done by diluted solutions of HCl and NaOH) were added to 100 μl of water containing the peptide in serial 2-fold dilutions in water. The fungi were incubated in the presence of the lipopeptides for 24-48 h at 35° C. in a Binder KB115 incubator under agitation. Growth inhibition was determined by measuring the absorbance at 620 nm with a Microplate autoreader E1309 (Bio-Tek Instruments). Antifungal activity is expressed as the minimal inhibitory concentration (MIC), the concentration at which 100% inhibition of fungi growth was observed after the incubation time mentioned above. The fungi used were: Aspergillus niger ATCC 9642, Candida albicans ATCC 10231 and Cryptococcus neoformans ATCC 66031. If not indicated otherwise, the fungi growth was detected at pH 7.4.

[14] = tested on: human red blood cells (hRBC); test: Hemolytic activity, release of hemoglobin at 540 nm
Protocol: Fresh human red blood cells (hRBC) with EDTA were rinsed 3 times with PBS (35 mM phosphate buffer/0.15 M NaCl, pH 7.3) by centrifugation for 10 min at 800 g and resuspended in PBS. Peptides dissolved in PBS were then added to 50 μl of a solution of the stock hRBC in PBS to reach a final volume of 100 μl (final erythrocyte concentration, 4% v/v). The resulting suspension was incubated under agitation for 60 min at 37° C. The samples were then centrifuged at 800×g for 10 min. Release of hemoglobin was monitored by measuring the absorbance of the supernatant at 540 nm. Controls for zero hemolysis (blank) and 100% hemolysis consisted of hRBC suspended in PBS and Triton 1%, respectively.

E. aerogenes ATCC 35029 = settings: ATCC 35029, pH 7.4
Method in brief: as §1

E. coli ATCC 35218 = settings: ATCC 35218, pH 7.4
Method in brief: as §1

[15] = Cytotoxicity, XTT viability, non-cancer cells; settings: mouse, non-cancer cell line, 24 h incubation, read-out: LC50, 3T3
Protocol: Prostate cancer cell lines (CL1 and 22RV1; ATCC, USA) were grown in RPMI-1640 supplemented with 10% FCS (Biological Industries, Beit Haemek, Israel). N1H-3T3 mouse fibroblast cell line (ATCC, USA) was grown in DMEM supplemented with 10% bovine serum. To test cytotoxicity against the cancer cells, aliquots of medium containing 1×10^4 cells were distributed into a 96-well plate (Falcon). After one day, the media were replaced with 90 μl of fresh media and 10 μl of a solution containing different concentrations of the peptides. The plate was then incubated for 24 h before adding to each well 50 μl of XTT reaction solution (Biological Industries, Beit Haemek, Israel); viability was determined as previously described (Papo et al., (2003) J. Biol. Chem. 278:21018-23). The LC50 (concentration at which 50% of the cells die) for each peptide was obtained from the dose-dependent cell viability curves.

[16] = Table 8, lipopeptides vs parent peptides
[17] = Table 8, lipopeptides vs parent peptides, pH 7.4
[18] = Table 14, lipopeptides vs parent peptides, pH 7.4

CCCCCCCCCCCCCCCC(=O)N[C@@H](CCCCN)C(=O)N[C@@H](C)C(=O)N[C@H](C)C(=O)N[C@H](C)C(=O)N[C@@H](CCCCN)C(=O)N[C@@H](C)C(=O)N[C@@H](C)C(=O)N[C@H](C)C(=O)N[C@@H](CCCCN)C(=O)N[C@H](C)C(=O)N[C@@H](C)C(=O)N[C@@H](CCCCN)C(N)=O [lipopeptide 5, (CH3—(CH2)14—CO—)-Lys-Ala-D-Ala-D-Ala-Lys-Ala-Ala-D-Ala-Lys-D-Ala-Ala-Lys-NH2] (Palmitoyl-KA[dA][dA]KAA[dA]K[dA]AK-NH2)
Minimal Inhibitory Concentration, A. Baumaannii ([1]; Table 4): 6.25 µM | Minimal Inhibitory Concentration, A. baumannii ATCC 19606 [1, 16]: 6.25 µM | Minimal Inhibitory Concentration, E. cloacae [2]: 25 µM | Minimal Inhibitory Concentration, E. faecalis [3]: 12.5 µM | Minimal Inhibitory Concentration, E. coli ([4]; Table 4): 6.25 µM | Minimal Inhibitory Concentration, E. coli (ATCC 25922) [4, 16]: 6.25 µM | Minimal Inhibitory Concentration, P. Aeruginosa ([5]; Table 4, pH 7.4): 6.25 µM | Minimal Inhibitory Concentration, P. aeruginosa ATCC 27853 [5, 17]: 6.25 µM | Minimal Inhibitory Concentration, S. aureus ([6]; Table 4, pH 7.4): 12.5 µM | Minimal Inhibitory Concentration, S. aureus ATCC 6538P [6, 17]: 12.5 µM | Minimal Inhibitory Concentration, S. aureus (MRSA) [7]: 12.5 µM | Minimal Inhibitory Concentration, B. subtilis (ATCC 6051) (B. subtilis ATCC 6051): 3.125 µM | Minimal Inhibitory Concentration, C. albicans ATCC 10231 ([8]; Table 10, pH 7.4): 12.5 µM | MIC ([8]; Table 14, lipopeptides vs parent peptides, pH 7.4, read-out: Minimal Inhibitory Concentration, Candida Albicans (ATCC 10231)): 12.5 µM (≈ 16.7 µg/mL) | Minimal Inhibitory Concentration, C. neoformans ATCC 66031 [9]: 1.56 µM | Minimal Inhibitory Concentration, Cryptococcus neoformans (ATCC MYA-422) [10, 18]: 1.56 µM | Minimal Inhibitory Concentration, A. fumigatus ATCC 26430 ([11]; Table 10, pH 7.4): 100 µM | Minimal Inhibitory Concentration, Aspergillus fumigatus (ATCC 26430) [11, 18]: 100 µM | Minimal Inhibitory Concentration, Aspergillus flavus (ATCC 9643) [12]: 80 µM | Minimal Inhibitory Concentration, Aspergillus niger (ATCC 9642) [13]: 10 µM | hemolytic activity ([14]; at concentrations lower than 12 μM, human red blood cells (FIGS. 1-5)): do not exhibit significant hemolytic activity | hemolytic activity ([14]; at concentrations lower than 12.5 μM, human red blood cells, 1 h): not hemolytic

CCCCCCCCCCCCCC(=O)N[C@H](CC(C)C)C(=O)N[C@@H](CCCCN)C(=O)N[C@@H](CCCCN)C(=O)N[C@H](CC(C)C)C(=O)N[C@H](CC(C)C)C(=O)N[C@@H](CCCCN)C(=O)N[C@@H](CCCCN)C(=O)N[C@H](CC(C)C)C(=O)N[C@H](CC(C)C)C(=O)N[C@@H](CCCCN)C(=O)N[C@@H](CCCCN)C(=O)N[C@H](CC(C)C)C(N)=O [lipopeptide 23, (CH3-(CH2)12-CO-)-D-Leu-Lys-Lys-D-Leu-D-Leu-Lys-Lys-D-Leu-D-Leu-Lys-Lys-D-Leu-NH2] (Myristoyl-[dL]KK[dL][dL]KK[dL][dL]KK[dL]-NH2)
Minimal Inhibitory Concentration, E. aerogenes ATCC 35029 (E. aerogenes ATCC 35029): >50 µM | Minimal Inhibitory Concentration, E. coli ATCC 35218 (E. coli ATCC 35218): 50 µM | Minimal Inhibitory Concentration, P. aeruginosa ATCC 27853 ([5]; ATCC 27853, pH 7.4): 50 µM | Minimal Inhibitory Concentration, S. aureus ATCC 6538P ([6]; ATCC 6538, pH 7.4): 50 µM | Minimal Inhibitory Concentration, C. albicans ATCC 10231 ([8]; ATCC 10231, pH 7.4): 1.56 µM | Minimal Inhibitory Concentration, C. neoformans ATCC MYA-422 [10]: 0.78 µM | Minimal Inhibitory Concentration, A. fumigatus ATCC 26430 ([11]; ATCC 26430, pH 7.4): 1.56 µM | CC50 at 24 h [15]: 50 µM

CCCCCCCCCCCCCCCC(=O)N[C@H](CC(C)C)C(=O)N[C@@H](CCCCN)C(=O)N[C@@H](CCCCN)C(=O)N[C@H](CC(C)C)C(=O)N[C@H](CC(C)C)C(=O)N[C@@H](CCCCN)C(=O)N[C@@H](CCCCN)C(=O)N[C@H](CC(C)C)C(=O)N[C@H](CC(C)C)C(=O)N[C@@H](CCCCN)C(=O)N[C@@H](CCCCN)C(=O)N[C@H](CC(C)C)C(N)=O [lipopeptide 24, (CH3-(CH2)14-CO-)-D-Leu-Lys-Lys-D-Leu-D-Leu-Lys-Lys-D-Leu-D-Leu-Lys-Lys-D-Leu-NH2] (Palmitoyl-[dL]KK[dL][dL]KK[dL][dL]KK[dL]-NH2)
Minimal Inhibitory Concentration, E. aerogenes ATCC 35029 (E. aerogenes ATCC 35029): >50 µM | Minimal Inhibitory Concentration, E. coli ATCC 35218 (E. coli ATCC 35218): 50 µM | Minimal Inhibitory Concentration, P. aeruginosa ATCC 27853 ([5]; ATCC 27853, pH 7.4): >50 µM | Minimal Inhibitory Concentration, S. aureus ATCC 6538P ([6]; ATCC 6538, pH 7.4): 50 µM | Minimal Inhibitory Concentration, C. albicans ATCC 10231 ([8]; ATCC 10231, pH 7.4): 1.56 µM | Minimal Inhibitory Concentration, C. neoformans ATCC MYA-422 [10]: 0.78 µM | Minimal Inhibitory Concentration, A. fumigatus ATCC 26430 ([11]; ATCC 26430, pH 7.4): 1.56 µM | CC50 at 24 h [15]: 50 µM
